Experimental data reported in PubChem BioAssay (NCI).
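Cultured in 96-well plates, cells were exposed to test compound for 48 hours across five concentrations. At the GI50, growth is halved. The concentration for full growth arrest is given as TGI.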

Key:
Test in all cases: growth of human tumour cells (NCI), 48 h
[1] = system: UACC-62 melanoma
[2] = system: SNB-19 CNS
[3] = system: 786-0 renal
[4] = system: SF-295 CNS
[5] = system: SK-MEL-2 melanoma
[6] = system: SF-268 CNS
[7] = system: OVCAR-4 ovarian
[8] = system: UO-31 renal
[9] = system: HCT-116 colon
[10] = system: RXF 393 renal

Row | SMILES | TGI [1] | TGI [2] | TGI [3] | TGI [4] | TGI [5] | TGI [6] | TGI [7] | TGI [8] | TGI [9] | TGI [10] | GI50 [1] | GI50 [2] | GI50 [3] | GI50 [4] | GI50 [5] | GI50 [6] | GI50 [7] | GI50 [8] | GI50 [9] | GI50 [10]
1 | CCOP(=O)(OCC)OC1C=CC2CCC1C2 (centres undefined) | > 100 µM | > 100 µM | > 100 µM | > 100 µM | > 100 µM | > 100 µM | > 100 µM | > 100 µM | > 100 µM | > 100 µM | – | – | – | – | – | – | – | – | – | –
2 | N#CC(C(=O)C(=O)Nc1ccc(Cl)cc1)c1ccccc1 (centres undefined) | 77.9 µM | > 100 µM | > 100 µM | > 100 µM | > 100 µM | > 100 µM | > 100 µM | > 100 µM | > 100 µM | > 100 µM | – | – | – | – | – | – | – | – | – | –
3 | CC(C)C(=O)NS(=O)(=O)c1ccccc1 | > 100 µM | > 100 µM | > 100 µM | > 100 µM | > 100 µM | > 100 µM | > 100 µM | > 100 µM | > 100 µM | > 100 µM | – | – | – | – | – | – | – | – | – | –
4 | COc1ccc(O)c(C(=O)c2ccc(C(=O)N[C@H]3CCCNC[C@@H]3NC(=O)c3ccncc3)cc2)c1F | > 25 µM | > 25 µM | > 20.2 µM | > 18.9 µM | > 22.4 µM | > 20.6 µM | > 25 µM | > 25 µM | > 25 µM | 15 µM | 9.26 µM | 10.4 µM | 3.07 µM | 1.9 µM | 4.2 µM | 1.75 µM | > 12.3 µM | > 18.9 µM | 12.3 µM | 1.44 µM
5 | CSc1ccc2c(c1)C(=O)c1c-2n(CCCBr)c(=O)c2cc([N+](=O)[O-])ccc12 | > 100 µM | > 100 µM | 10.5 µM | > 100 µM | > 100 µM | > 100 µM | > 100 µM | > 100 µM | > 100 µM | > 100 µM | 3.1 µM | 3.78 µM | 2.45 µM | 1.04 µM | > 100 µM | 7.42 µM | > 100 µM | 3.63 µM | 2.22 µM | > 100 µM
6 | NC(=O)c1cc(S(=O)(=O)Nc2nnc(-c3ccccc3)c(-c3ccccc3)n2)c(SCc2ccccc2)cc1Cl | > 100 µM | > 100 µM | > 100 µM | > 100 µM | > 60.7 µM | > 100 µM | > 64.6 µM | > 100 µM | > 100 µM | > 100 µM | 71.1 µM | > 100 µM | > 100 µM | > 57.7 µM | > 43.1 µM | > 87.5 µM | – | > 100 µM | > 100 µM | 75.3 µM
7 | C=C1C(=O)OC2CC(C)C3(O)CCC(=O)C3(C)CC12 (centres undefined) | > 100 µM | 61.4 µM | 59.7 µM | > 100 µM | 71.5 µM | 64.5 µM | 40.2 µM | > 100 µM | 99.4 µM | 79.7 µM | – | – | – | – | – | – | – | – | – | –
8 | COc1ccc(-c2ccc(-c3ccc(C(=N)N)s3)s2)cc1 | 0.357 µM | 1.41 µM | 0.378 µM | 0.395 µM | 4.14 µM | 0.451 µM | 0.399 µM | 0.355 µM | 0.342 µM | 3.05 µM | 0.188 µM | 0.31 µM | 0.187 µM | 0.188 µM | 2.22 µM | 0.211 µM | 0.187 µM | 0.181 µM | 0.179 µM | 1.26 µM
9 | O=CN1CCN(CC(O)CN2CCCCC2)CC1 (centres undefined) | > 100 µM | > 100 µM | > 100 µM | > 100 µM | > 100 µM | > 100 µM | > 100 µM | > 100 µM | > 100 µM | > 100 µM | – | – | – | – | – | – | – | – | – | –
10 | Cc1cc(S(=O)(=O)O)c(NC(=O)C(=O)Cc2cc(=O)oc3cc(O)ccc23)cc1Cl | > 100 µM | > 100 µM | > 100 µM | > 100 µM | > 100 µM | > 100 µM | > 100 µM | > 100 µM | > 100 µM | > 100 µM | – | – | – | – | – | – | – | – | – | –
11 | CCN(Cc1ccccc1C)c1ccc(CO)c(Cl)c1 | 6.27 µM | 52.8 µM | 30.9 µM | 16.9 µM | 18.1 µM | 31.8 µM | 11.8 µM | 32.9 µM | 11.6 µM | 23.8 µM | 0.423 µM | 17.8 µM | 15 µM | 4.15 µM | 4.47 µM | 16.1 µM | 1.26 µM | 12.9 µM | 0.445 µM | 6.3 µM
